Test results from patent US4824834A, “Pyrazolotriazine compounds” (Otsuka Pharmaceutical Company, Limited, priority 1986, dated 1989).

Experiments:
uric acid in serum = assay: Lowering effect of test compound on the level of uric acid in serum (in vivo, oral administration); set-up: species or system mouse (normal male ICR mice); details: Mus musculus, 4 hours after administration, male ICR mice, suspended in 0.5% CMC-Na, read-out: in vivo Lowering rate (%) of uric acid in serum (in 4 hours)
Description: Experiment 2 (In Vivo: Oral Administration)
(1) Animals, Method of Administration and Sampling of Serum
Normal male ICR mice (weighting about 30 g), were provided normal diet and tap water ad libitum. A test compound suspended in 0.5% CMC-Na was administered orally to the mice (each group: 6 mice) in a dose of 5 mg/kg.
(2) Measurement of Amount of Uric Acid in Serum
To the serum (200 μl) was added 10% perchloric acid (100 μl), and the mixture was centrifuged. To the supernatant fluid (100 μl) was added 0.2M Na2 HPO4 (200 μl), and the mixture (20 μl) was analyzed by HPLC to measure the amount of uric acid. The HPLC was carried out under the following conditions.
Column: Cosmosil packed column (.phi. 4.6 mm×150 mm, 5C18 -300)
(§1) Eluting solution: 10 mM phosphate buffer (pH 6.0)
(§2) Retention time: 2.4 minutes (uric acid)
(3) Lowering Effect of Test Compound on the Level of Uric Acid in Serum
The lowering rate of uric acid in serum was calculated by the following equation. [formula]

Xanthine oxidase = target: T1, Xanthine oxidase (Mus musculus, UniProt Q00519); assay: Xanthine oxidase inhibition (in vitro), mouse small intestine xanthine oxidase solution, HPLC of uric acid; format: biochemical, mouse (ICR strain mice; details: xanthine substrate, incubated at 37° C. for 5 minutes; HPLC UV 292 nm
T1 construct: The small intestine was homogenized in 4-fold volume of cooled phosphate buffered saline solution (PBS) and then centrifuged; from tissue; host or cells: small intestine of ICR strain mice; dialysed supernatant of a 105,000 g centrifugation
Description: (1) Preparation of Xanthine Oxidase Solution
ICR strain mice were decapitated and the small intestine of each mouse was rapidly perfused with cooled physiological saline solution and removed. The small intestine was homogenized in 4-fold volume of cooled phosphate buffered saline solution (PBS) and then centrifuged at 105,000 g for 60 minutes. The supernatant fluid was dialyzed overnight against PBS. The dialyzed solution thus prepared was stored at -20° C. until used.
(2) Preparation of the Solution Containing the Present Compound
The compound of this invention was dissolved in DMSO (200 μl) and 2N NaOH (100 μl), and then PBS was added to prepare a solution (25 ml) containing 10^-3 M of the compound of this invention. This solution was diluted with PBS to prepare solutions containing the compound in the concentration of 10^-4, 10^-5, 10^-6, 10^-7, 10^-8, 10^-9, 10^-10, and 10^-11 M, respectively.
(3) Method for the Measurement
The assay mixture, consisted of the composition mentioned below, was incubated at 37° C. for 5 minutes. The reaction was stopped by heating in boiling water for one minute. Twenty microliters of the supernatant was analyzed by high performance liquid chromatography (HPLC) under the conditions mentioned below.
Xanthine oxidase solution (diluted in 4-folds with PBS): 200 μl
Solution containing the present compound: 200 μl
Column: osmosil packed column (.phi. 4. mm×150 mm, 5C18×300)
as §1, §2
(4) Percent Inhibition of the Compound Against Xanthine Oxidase
The percent inhibition was calculated by the following equation. [formula]
As to each of the solutions containing the present compound as prepared in the above (2), the percent inhibition was calculted, and IC50 values were obtained from a plot of the percent inhibition against the log of the concentration of the compound of this invention.

T1 sequence (Q00519 whole entry): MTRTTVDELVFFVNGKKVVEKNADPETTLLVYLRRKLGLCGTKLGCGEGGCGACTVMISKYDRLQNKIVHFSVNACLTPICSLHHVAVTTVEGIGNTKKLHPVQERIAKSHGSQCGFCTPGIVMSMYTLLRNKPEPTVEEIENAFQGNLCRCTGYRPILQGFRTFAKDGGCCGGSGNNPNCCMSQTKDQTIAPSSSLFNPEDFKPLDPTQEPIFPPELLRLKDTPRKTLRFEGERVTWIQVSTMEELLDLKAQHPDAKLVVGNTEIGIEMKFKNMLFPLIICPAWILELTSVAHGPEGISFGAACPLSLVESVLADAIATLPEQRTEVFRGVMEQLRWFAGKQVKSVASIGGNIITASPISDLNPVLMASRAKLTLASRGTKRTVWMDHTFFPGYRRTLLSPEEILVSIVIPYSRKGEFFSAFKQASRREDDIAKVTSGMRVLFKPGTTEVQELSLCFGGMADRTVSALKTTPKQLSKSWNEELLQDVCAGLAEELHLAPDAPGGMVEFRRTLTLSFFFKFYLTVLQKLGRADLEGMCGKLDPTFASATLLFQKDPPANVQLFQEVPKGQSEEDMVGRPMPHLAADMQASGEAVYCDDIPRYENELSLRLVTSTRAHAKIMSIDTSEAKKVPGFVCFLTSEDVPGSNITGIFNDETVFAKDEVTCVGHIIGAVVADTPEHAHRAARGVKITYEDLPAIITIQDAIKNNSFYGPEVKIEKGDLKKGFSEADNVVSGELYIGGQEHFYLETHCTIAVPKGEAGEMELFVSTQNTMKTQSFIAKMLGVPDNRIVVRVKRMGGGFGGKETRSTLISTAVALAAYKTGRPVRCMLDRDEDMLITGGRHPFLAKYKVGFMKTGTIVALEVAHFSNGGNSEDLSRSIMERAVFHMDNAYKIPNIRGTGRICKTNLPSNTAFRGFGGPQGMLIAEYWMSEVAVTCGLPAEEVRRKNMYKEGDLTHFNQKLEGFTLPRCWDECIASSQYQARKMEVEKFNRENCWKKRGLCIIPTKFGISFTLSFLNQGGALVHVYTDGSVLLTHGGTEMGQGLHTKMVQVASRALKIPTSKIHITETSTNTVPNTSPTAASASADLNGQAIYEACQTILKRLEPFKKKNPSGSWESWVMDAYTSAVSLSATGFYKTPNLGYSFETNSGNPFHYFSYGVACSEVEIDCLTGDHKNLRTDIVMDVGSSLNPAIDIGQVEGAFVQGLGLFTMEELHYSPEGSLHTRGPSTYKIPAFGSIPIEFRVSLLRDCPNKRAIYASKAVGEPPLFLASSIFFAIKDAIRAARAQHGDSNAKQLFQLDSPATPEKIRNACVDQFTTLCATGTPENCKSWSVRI

SMILES | IC50 (Xanthine oxidase) [nM] | inhibition in vivo at 5 mg/kg (uric acid in serum) [%]
Oc1ncnc2[nH]ncc12 [Allopurinol, 4-hydroxypyrazolo[3,4-d]pyrimidine, reference compound] | – | 34
CCSc1ccc(-c2cnn3c(O)ncnc23)cc1 [Example 17, 8-(4-Ethylthiophenyl)-4-hydroxypyrazolo[1,5-a]-1,3,5-triazine] | 30 | –
Oc1ncnc2c(-c3ccc(Sc4ccccc4)cc3)cnn12 [Example 19, 4-Hydroxy-8-(4-phenylthiophenyl)pyrazolo[1,5-a]-1,3,5-triazine] | 160 | –
CSc1ccc(-c2cnn3c(O)ncnc23)cc1C [Example 30, 4-Hydroxy-8-(3-methyl-4-methylthiophenyl)pyrazolo[1,5-a]-1,3,5-triazine] | 71 | 47
CCSc1ccc(-c2cnn3c(O)ncnc23)cc1C [Example 31, 8-(4-Ethylthio-3-methylphenyl)-4-hydroxypyrazolo[1,5-a]-1,3,5-triazine] | 10 | 63.5
CSc1ccc(-c2cnn3c(O)ncnc23)cc1SC [Example 41, 8-[(3,4-Bismethylthio)phenyl]-4-hydroxypyrazolo[1,5-a]-1,3,5-triazine] | 24 | 60.1
Oc1ncnc2c(-c3cc(Cl)c(OCc4ccccc4)c(Cl)c3)cnn12 [Example 52, 8-(4-Benzyloxy-3,5-dichlorophenyl)-4-hydroxypyrazolo[1,5-a]-1,3,5-triazine] | 53 | –
Oc1ncnc2c(-c3cc(Cl)c(Cl)c(Cl)c3)cnn12 [Example 53, 4-Hydroxy-8-(3,4,5-trichlorophenyl)pyrazolo[1,5-a]-1,3,5-triazine] | 15 | –
CSc1cc(F)c(-c2cnn3c(O)ncnc23)cc1C [Example 54, 8-(2-Fluoro-5-methyl-4-methylthiophenyl)-4hydroxypyrazolo[1,5-a]-1,3,5-triazine] | 550 | 65.2
O=C(c1ccccc1)c1ccc(-c2cnn3c(O)ncnc23)cc1 [Example 70, 8-(4-Benzoylphenyl)-4-hydroxypyrazolo[1,5-a]-1,3,5-triazine] | 5.2 | –
Cc1cc(-c2cnn3c(O)ncnc23)ccc1[N+](=O)[O-] [Example 73, 4-Hydroxy-8-(3-methyl-4-nitrophenyl)pyrazolo[1,5-a]-1,3,5-triazine] | 40 | –
CC(C)c1ccc(NS(=O)(=O)c2ccc(-c3cnn4c(O)ncnc34)cc2)cc1 [Example 99, 4-Hydroxy-8-[4-(4-isopropylphenylaminosulfonyl)phenyl]pyrazolo[1,5-a]-1,3,5-triazine] | 0.14 | –
COC(=O)c1ccc(NS(=O)(=O)c2ccc(-c3cnn4c(O)ncnc34)cc2)cc1 [Example 105, 4-Hydroxy-8-[4-(4-methoxycarbonylphenylaminosulfonyl)phenyl]pyrazolo[1,5-a]-1,3,5-triazine] | 2.2 | –
COC(=O)c1ccc(NS(=O)(=O)c2ccc(-c3cnn4c(O)ncnc34)cc2)cc1O [Example 112] | 6.5 | –
COC(=O)c1ccc(NS(=O)(=O)c2ccc(-c3cnn4c(O)ncnc34)cc2)cc1OC [Example 113, 4-Hydroxy-8-[4-(3-methoxy-4-methoxycarbonylphenylaminosulfonyl)phenyl]pyrazolo[1,5-a]-1,3,5-triazine] | 34 | –
O=S(=O)(NCc1cccs1)c1ccc(-c2cnn3c(O)ncnc23)cc1 [Example 134, 4-Hydroxy-8-[4-(2-thienylmethylaminosulfonyl)phenyl]pyrazolo[1,5-a]-1,3,5-triazine] | 76 | –

The remaining molecules from weak to strong by IC50 (Xanthine oxidase), led by results:

IC50 (Xanthine oxidase) [nM] | SMILES | inhibition in vivo at 5 mg/kg (uric acid in serum) [%]
310 | Cc1ccc(Sc2ccc(-c3cnn4c(O)ncnc34)cc2)cc1 [Example 21, 4-Hydroxy-8-[4-(4-methylphenylthio)phenyl]pyrazolo[1,5-a]-1,3,5-triazine] | –
64 | O=S(=O)(Nc1cccc(O)c1)c1ccc(-c2cnn3c(O)ncnc23)cc1 [Example 107, 4-Hydroxy-8-[4-(3-hydroxyphenylaminosulfonyl)phenyl]pyrazolo[1,5-a]-1,3,5-triazine] | –
54 | CC(O)c1ccc(NS(=O)(=O)c2ccc(-c3cnn4c(O)ncnc34)cc2)cc1 (stereo not drawn) [Example 101, 4-Hydroxy-8-[4-(4-α-hydroxyethylphenylaminosulfonyl)phenyl]pyrazolo[1,5-a]-1,3,5-triazine] | –
52 | Cc1cc(-c2cnn3c(O)ncnc23)ccc1Br [Example 142, 8-(4-Bromo-3-methylphenyl)-4-hydroxypyrazolo[1,5-a]-1,3,5-triazine] | –
50 | COc1cc(-c2cnn3c(O)ncnc23)ccc1[N+](=O)[O-] [Example 74, 4-Hydroxy-8-(3-methoxy-4-nitrophenyl)pyrazolo[1,5-a]-1,3,5-triazine] | –
45 | CCc1cc(-c2cnn3c(O)ncnc23)ccc1SC [Example 39, 8-(3-Ethyl-4-methylthiophenyl)-4-hydroxypyrazolo[1,5-a]-1,3,5-triazine] | –
39 | Cc1cc(-c2cnn3c(O)ncnc23)ccc1S(=O)(=O)N(C)C [Example 138, 8-(4-Dimethylaminosulfonyl-3-methylphenyl)-4hydroxypyrazolo[1,5-a]-1,3,5-triazine] | –
36 | Oc1ncnc2c(-c3ccc(Br)c(Cl)c3)cnn12 [Example 143, 8-(4-Bromo-3-chlorophenyl)-4-hydroxypyrazolo[1,5-a]-1,3,5-triazine] | –
32 | CN(C)S(=O)(=O)c1ccc(-c2cnn3c(O)ncnc23)cc1Cl [Example 136, 8-(3-Chloro-4-dimethylaminosulfonylphenyl)-4-hydroxypyrazolo[1,5-a]-1,3,5-triazine] | –
18 | Cc1cc(-c2cnn3c(O)ncnc23)ccc1Sc1ccccc1 [Example 33, 4-Hydroxy-8-(3-methyl-4-phenylthiophenyl)pyrazolo[1,5-a]-1,3,5-triazine] | 62
10 | CSc1ccc(-c2cnn3c(O)ncnc23)cc1Cl [Example 43, 8-(3-Chloro-4-methylthiophenyl)-4-hydroxypyrazolo[1,5-a]-1,3,5-triazine] | 60.6
5 | Oc1ncnc2c(-c3ccc(Sc4ccccc4)c(Cl)c3)cnn12 [Example 167, 8-(3-Chloro-4-phenylthiophenyl)-4-hydroxypyrazolo[1,5-a]-1,3,5-triazine] | –
3.6 | Cc1ccc(NS(=O)(=O)c2ccc(-c3cnn4c(O)ncnc34)cc2)cc1 [Example 95, 4-Hydroxy-8-[4-(4-methylphenylaminosulfonyl)phenyl]pyrazolo[1,5-a]-1,3,5-triazine] | –
3.6 | O=S(=O)(Nc1ccc(Cl)cc1)c1ccc(-c2cnn3c(O)ncnc23)cc1 [Example 109, 8-[4-(4-Chlorophenylaminosulfonyl)phenyl]-4hydroxypyrazolo[1,5-a]-1,3,5-triazine] | –
0.75 | CC(C)(C)c1ccc(NS(=O)(=O)c2ccc(-c3cnn4c(O)ncnc34)cc2)cc1 [Example 100, 8-[4-(4-t-Butylphenylaminosulfonyl)phenyl]-4hydroxypyrazolo[1,5-a]-1,3,5-triazine] | –
0.45 | CCc1cccc(NS(=O)(=O)c2ccc(-c3cnn4c(O)ncnc34)cc2)c1 [Example 97, 8-[4-(3-Ethylphenylaminosulfonyl)phenyl]-4-hydroxypyrazolo[1,5-a]-1,3,5-triazine] | –
0.1 | CCc1ccc(NS(=O)(=O)c2ccc(-c3cnn4c(O)ncnc34)cc2)cc1 [Example 96, 8-[4-(4-Ethylphenylaminosulfonyl)phenyl]-4-hydroxypyrazolo[1,5-a]-1,3,5-triazine] | –
